The term residual activity denotes the signal under treatment as a percentage of the control signal.

Assay [1] concerns the target T1, Activin receptor type-1 (Homo sapiens) (UniProt Q04771).
T1 sequence (whole entry): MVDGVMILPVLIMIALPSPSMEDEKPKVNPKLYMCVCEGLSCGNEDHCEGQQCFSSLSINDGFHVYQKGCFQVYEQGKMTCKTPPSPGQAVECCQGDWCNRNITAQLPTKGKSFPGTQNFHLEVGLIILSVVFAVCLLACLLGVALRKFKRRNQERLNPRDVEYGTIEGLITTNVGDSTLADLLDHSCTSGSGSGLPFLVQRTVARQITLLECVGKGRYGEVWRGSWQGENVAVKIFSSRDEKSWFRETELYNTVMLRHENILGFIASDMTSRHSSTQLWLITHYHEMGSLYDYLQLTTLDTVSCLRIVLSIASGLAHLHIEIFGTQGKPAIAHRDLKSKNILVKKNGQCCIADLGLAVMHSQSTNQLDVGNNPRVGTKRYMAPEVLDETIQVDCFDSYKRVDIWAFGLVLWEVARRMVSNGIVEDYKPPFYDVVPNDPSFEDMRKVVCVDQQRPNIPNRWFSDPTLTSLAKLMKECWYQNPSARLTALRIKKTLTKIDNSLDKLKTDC
Kind of assay: Residual activity of ACV-R1 at 10 uM by microplate scintillation counting.

The target of assay [2] is Serine/threonine-protein kinase PAK 5 (Homo sapiens) (UniProt Q9P286). Kind of assay: Residual activity of PAK7 at 0.1 uM by microplate scintillation counting.
Sequence of Serine/threonine-protein kinase PAK 5 (Homo sapiens) (Q9P286 whole entry, looked up): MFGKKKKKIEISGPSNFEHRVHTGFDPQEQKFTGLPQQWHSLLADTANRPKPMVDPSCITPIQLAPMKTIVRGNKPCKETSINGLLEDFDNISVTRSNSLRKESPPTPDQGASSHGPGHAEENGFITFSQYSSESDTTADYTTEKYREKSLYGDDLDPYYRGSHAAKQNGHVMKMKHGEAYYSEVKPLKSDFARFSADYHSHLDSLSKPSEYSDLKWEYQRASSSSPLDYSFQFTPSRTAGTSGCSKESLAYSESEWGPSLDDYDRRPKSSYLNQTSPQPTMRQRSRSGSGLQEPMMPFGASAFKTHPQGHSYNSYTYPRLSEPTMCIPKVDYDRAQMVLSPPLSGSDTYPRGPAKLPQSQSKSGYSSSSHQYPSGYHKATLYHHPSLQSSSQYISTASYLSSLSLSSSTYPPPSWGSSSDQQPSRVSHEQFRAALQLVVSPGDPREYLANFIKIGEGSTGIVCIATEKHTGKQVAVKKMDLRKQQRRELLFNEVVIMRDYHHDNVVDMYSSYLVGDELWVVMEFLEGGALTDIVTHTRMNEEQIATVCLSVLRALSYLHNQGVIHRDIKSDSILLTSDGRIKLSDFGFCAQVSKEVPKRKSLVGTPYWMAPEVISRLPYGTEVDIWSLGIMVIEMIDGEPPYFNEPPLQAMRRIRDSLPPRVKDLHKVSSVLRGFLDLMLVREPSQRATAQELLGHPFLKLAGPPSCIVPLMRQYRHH
In assay [3] the target is T2, Beta-adrenergic receptor kinase 1 (Homo sapiens) (UniProt P25098).
T2 sequence (whole entry): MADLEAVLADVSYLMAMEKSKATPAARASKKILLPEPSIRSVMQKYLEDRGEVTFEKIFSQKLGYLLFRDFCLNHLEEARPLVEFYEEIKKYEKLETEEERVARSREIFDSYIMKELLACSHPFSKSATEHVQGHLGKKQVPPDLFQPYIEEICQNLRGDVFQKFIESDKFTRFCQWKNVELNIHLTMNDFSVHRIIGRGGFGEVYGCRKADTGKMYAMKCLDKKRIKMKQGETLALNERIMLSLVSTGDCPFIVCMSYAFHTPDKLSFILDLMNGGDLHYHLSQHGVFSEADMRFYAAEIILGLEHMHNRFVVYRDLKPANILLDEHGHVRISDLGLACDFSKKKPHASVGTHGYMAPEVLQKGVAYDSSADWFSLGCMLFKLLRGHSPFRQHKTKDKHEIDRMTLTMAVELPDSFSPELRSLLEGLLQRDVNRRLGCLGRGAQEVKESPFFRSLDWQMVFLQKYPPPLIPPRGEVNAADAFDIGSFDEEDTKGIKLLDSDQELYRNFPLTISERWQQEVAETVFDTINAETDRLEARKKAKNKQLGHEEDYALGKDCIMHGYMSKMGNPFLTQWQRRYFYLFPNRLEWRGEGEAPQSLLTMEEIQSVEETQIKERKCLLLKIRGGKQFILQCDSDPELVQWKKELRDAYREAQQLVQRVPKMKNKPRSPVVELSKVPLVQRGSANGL
The experiment in a line: Residual activity of GRK2 at 1 uM by microplate scintillation counting.

In assay [4] the target is T3, Megakaryocyte-associated tyrosine-protein kinase (Homo sapiens) (UniProt P42679).
T3 sequence (whole entry): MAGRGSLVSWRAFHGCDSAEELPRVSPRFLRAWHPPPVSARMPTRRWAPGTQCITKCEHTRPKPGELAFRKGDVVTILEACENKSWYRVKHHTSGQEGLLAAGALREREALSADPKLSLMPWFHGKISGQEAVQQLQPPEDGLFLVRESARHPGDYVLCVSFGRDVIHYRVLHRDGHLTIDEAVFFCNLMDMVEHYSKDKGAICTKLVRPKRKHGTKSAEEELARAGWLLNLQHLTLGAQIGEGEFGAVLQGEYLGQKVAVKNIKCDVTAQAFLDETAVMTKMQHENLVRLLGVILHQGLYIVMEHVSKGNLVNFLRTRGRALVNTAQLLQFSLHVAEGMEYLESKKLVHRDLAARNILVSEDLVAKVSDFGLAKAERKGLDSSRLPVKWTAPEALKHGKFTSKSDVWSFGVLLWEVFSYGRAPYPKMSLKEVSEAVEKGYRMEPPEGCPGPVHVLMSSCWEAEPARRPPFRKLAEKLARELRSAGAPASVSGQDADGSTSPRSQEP
Kind of assay: Residual activity of MATK at 1 uM by microplate scintillation counting.

Assay [5] has as its target Serine/threonine-protein kinase 24 (Homo sapiens) (UniProt Q9Y6E0). The experiment in a line: Residual activity of MST3 at 1 uM by microplate scintillation counting.
In assay [6] the target is Ribosomal protein S6 kinase alpha-6 (Homo sapiens) (UniProt Q9UK32). Kind of assay: Residual activity of RPS6KA6 at 0.1 uM by microplate scintillation counting.
Sequence of Ribosomal protein S6 kinase alpha-6 (Homo sapiens) (Q9UK32 whole entry): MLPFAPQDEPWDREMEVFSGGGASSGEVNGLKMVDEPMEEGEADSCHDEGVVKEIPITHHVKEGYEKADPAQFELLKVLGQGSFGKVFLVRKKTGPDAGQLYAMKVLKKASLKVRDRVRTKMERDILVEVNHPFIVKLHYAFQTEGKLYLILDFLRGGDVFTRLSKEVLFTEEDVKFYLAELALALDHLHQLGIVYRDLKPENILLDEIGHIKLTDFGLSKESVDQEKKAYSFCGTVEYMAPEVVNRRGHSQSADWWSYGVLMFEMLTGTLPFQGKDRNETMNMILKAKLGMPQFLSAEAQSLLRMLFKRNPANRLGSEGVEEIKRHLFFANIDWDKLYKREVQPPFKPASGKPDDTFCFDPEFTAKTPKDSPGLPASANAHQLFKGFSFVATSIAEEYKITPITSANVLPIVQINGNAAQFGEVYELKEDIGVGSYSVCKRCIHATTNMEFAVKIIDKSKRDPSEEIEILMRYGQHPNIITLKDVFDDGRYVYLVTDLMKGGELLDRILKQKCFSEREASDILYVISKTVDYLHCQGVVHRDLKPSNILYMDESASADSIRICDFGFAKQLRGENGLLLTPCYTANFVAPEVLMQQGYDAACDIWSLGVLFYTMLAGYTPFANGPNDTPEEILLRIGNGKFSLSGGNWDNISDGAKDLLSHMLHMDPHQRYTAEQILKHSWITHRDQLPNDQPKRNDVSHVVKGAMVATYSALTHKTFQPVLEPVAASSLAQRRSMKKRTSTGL
For assay [7], the target named is CDK4/Cyclin D3 (Homo sapiens) (UniProt P11802+P30281). Kind of assay: Residual activity of CDK4/Cyclin D3 at 0.1 uM by microplate scintillation counting. Type of assay: protein-complex assay.
For assay [8], the target named is Tyrosine-protein kinase Fer (Homo sapiens) (UniProt P16591). The experiment in a line: Residual activity of FER at 1 uM by microplate scintillation counting.
Sequence of Tyrosine-protein kinase Fer (Homo sapiens) (P16591 whole entry, looked up): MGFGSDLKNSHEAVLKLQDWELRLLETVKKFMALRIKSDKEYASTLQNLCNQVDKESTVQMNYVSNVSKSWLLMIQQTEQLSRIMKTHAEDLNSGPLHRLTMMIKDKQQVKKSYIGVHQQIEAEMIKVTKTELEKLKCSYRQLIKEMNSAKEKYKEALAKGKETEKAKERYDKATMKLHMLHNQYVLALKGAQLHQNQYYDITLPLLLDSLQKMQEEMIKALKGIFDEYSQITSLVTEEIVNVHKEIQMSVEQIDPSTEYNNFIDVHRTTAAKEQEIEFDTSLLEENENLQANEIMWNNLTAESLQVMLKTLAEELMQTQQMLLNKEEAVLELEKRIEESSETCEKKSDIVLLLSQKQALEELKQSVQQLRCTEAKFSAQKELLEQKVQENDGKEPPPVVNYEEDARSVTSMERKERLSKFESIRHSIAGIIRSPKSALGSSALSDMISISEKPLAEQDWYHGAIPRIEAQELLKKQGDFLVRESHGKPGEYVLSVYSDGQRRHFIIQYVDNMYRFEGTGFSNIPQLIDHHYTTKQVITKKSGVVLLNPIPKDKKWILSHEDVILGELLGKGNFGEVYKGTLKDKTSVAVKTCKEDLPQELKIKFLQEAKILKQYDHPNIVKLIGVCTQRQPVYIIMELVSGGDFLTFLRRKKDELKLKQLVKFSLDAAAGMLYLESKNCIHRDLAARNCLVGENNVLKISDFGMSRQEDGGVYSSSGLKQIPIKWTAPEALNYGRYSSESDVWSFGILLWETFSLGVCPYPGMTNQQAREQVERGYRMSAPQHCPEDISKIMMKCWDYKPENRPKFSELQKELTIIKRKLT
The target in assay [9] is T4, Inhibitor of nuclear factor kappa-B kinase subunit epsilon (Homo sapiens) (UniProt Q14164).
T4 sequence (whole entry): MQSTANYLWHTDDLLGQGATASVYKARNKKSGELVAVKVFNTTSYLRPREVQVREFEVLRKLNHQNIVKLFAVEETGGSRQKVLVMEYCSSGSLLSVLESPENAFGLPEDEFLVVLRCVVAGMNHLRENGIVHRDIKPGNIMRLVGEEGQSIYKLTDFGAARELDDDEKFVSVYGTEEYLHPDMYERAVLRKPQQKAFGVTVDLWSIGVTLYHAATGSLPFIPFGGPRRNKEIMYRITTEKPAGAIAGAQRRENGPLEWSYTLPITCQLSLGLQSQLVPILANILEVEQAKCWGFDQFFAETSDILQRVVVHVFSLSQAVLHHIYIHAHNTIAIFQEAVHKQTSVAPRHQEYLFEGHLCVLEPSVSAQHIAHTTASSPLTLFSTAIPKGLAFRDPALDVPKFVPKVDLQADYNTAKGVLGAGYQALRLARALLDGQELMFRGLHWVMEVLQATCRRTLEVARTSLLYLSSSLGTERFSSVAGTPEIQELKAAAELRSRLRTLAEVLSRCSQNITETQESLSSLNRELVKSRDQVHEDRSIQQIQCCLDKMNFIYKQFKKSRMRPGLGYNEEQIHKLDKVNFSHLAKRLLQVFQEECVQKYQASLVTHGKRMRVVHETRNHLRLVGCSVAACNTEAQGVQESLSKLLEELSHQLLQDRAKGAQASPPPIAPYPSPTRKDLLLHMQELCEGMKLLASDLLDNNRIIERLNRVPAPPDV
Kind of assay: Residual activity of IKKepsilon at 0.1 uM by microplate scintillation counting.

The target of assay [10] is T4, Inhibitor of nuclear factor kappa-B kinase subunit epsilon (Homo sapiens). Kind of assay: Residual activity of IKKepsilon at 1 uM by microplate scintillation counting.
Assay [11] has as its target G protein-coupled receptor kinase 6 (Homo sapiens) (UniProt P43250). The experiment in a line: Residual activity of GRK6 at 1 uM by microplate scintillation counting.

Sequence of G protein-coupled receptor kinase 6 (Homo sapiens) (P43250 whole entry, looked up): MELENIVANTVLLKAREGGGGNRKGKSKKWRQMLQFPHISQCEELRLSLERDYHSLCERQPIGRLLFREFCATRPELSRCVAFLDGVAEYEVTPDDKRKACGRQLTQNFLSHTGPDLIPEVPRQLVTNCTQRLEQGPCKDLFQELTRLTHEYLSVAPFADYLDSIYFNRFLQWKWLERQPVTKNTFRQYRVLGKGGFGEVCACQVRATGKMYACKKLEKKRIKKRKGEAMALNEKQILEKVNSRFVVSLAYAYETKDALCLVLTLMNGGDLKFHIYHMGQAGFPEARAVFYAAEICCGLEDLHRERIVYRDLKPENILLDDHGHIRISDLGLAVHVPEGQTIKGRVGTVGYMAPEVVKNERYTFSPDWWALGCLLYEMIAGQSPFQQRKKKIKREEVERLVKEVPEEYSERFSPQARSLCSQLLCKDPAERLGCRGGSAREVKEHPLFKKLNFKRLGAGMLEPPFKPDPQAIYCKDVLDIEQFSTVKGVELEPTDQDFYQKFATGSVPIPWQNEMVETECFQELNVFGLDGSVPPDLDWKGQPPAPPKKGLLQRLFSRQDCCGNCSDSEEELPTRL
Sequence of Serine/threonine-protein kinase 24 (Homo sapiens) (Q9Y6E0 whole entry, looked up): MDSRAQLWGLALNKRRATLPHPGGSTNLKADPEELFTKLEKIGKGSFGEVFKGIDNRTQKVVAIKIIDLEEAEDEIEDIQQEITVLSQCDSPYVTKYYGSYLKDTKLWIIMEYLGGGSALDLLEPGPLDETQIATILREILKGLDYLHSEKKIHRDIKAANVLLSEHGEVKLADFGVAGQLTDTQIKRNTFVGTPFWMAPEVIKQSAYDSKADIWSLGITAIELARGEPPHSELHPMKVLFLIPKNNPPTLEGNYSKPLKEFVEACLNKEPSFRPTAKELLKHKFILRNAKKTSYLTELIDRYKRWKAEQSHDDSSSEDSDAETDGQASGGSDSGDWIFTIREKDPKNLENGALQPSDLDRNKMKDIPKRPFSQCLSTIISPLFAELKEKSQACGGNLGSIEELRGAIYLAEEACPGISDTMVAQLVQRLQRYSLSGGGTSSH

As for `COc1cc2c(Oc3ccc(-c4nc5ccccc5s4)cc3F)ncnc2cc1OCCCN1CCN(C)CC1`, the residual activity in assay [1] was found to be 96%; in assay [2] it was 84%; in [3], 85%; in assay [4] it was 162%; in assay [5] it was 122%; in assay [6], 95%. Further, the residual activity stood at 82% in assay [7]; 96% in assay [8]; 87% in assay [9]; 81% in [10]; 93% in [11].

On to `COc1cc2c(Oc3ccc(-c4nc5ccccc5s4)cc3)ncnc2cc1OCCCN1CCN(C)CC1`, for which the residual activity in [1] turned out to be 87%; in assay [2] it was 80%; in assay [3], 105%; in [4], 141%; in [5], 118%; in assay [6], 96%. The residual activity in assay [7] was 98%; in [8], 107%; in assay [9], 91%; in [10] it was 90%; in assay [11], 80%.

`COc1cc2c(Oc3ccc(-c4nc5ccccc5s4)cc3)ncnc2cc1OCCCN1CCCC1`: the residual activity in [1] came out at 81%; in [2], 92%; in [3], 97%; in assay [4], 235%; in assay [5] it was 113%; in [6] it was 92%. Also, the residual activity worked out at 80% in assay [7]; 103% in assay [8]; 92% in assay [9]; 98% in assay [10]; 90% in [11].

Source of the values: ChEMBL document CHEMBL1152560, “Substituted 2-arylbenzothiazoles as kinase inhibitors: hit-to-lead optimization” (Bioorg Med Chem, 2009).
